Source: ChEMBL document CHEMBL1142322, “Synthesis and biological evaluation of novel 8-aminomethylated oroxylin A analogues as alpha-glucosidase inhibitors” (Bioorg Med Chem Lett, 2008)
Calls of active or inactive are those of the source. The rule behind the calls is not given here.

Tests used:
[1] = (§1) Inhibition of rat intestinal alpha-glucosidase
[2] = (§2) Inhibition of yeast alpha-glucosidase; parameters: species or system Saccharomyces cerevisiae
[3] = target: Sucrase-isomaltase, intestinal (Homo sapiens, UniProt P14410); test: Inhibition of sucrase
Chain of Sucrase-isomaltase, intestinal (P14410 2-1007 limits assumed): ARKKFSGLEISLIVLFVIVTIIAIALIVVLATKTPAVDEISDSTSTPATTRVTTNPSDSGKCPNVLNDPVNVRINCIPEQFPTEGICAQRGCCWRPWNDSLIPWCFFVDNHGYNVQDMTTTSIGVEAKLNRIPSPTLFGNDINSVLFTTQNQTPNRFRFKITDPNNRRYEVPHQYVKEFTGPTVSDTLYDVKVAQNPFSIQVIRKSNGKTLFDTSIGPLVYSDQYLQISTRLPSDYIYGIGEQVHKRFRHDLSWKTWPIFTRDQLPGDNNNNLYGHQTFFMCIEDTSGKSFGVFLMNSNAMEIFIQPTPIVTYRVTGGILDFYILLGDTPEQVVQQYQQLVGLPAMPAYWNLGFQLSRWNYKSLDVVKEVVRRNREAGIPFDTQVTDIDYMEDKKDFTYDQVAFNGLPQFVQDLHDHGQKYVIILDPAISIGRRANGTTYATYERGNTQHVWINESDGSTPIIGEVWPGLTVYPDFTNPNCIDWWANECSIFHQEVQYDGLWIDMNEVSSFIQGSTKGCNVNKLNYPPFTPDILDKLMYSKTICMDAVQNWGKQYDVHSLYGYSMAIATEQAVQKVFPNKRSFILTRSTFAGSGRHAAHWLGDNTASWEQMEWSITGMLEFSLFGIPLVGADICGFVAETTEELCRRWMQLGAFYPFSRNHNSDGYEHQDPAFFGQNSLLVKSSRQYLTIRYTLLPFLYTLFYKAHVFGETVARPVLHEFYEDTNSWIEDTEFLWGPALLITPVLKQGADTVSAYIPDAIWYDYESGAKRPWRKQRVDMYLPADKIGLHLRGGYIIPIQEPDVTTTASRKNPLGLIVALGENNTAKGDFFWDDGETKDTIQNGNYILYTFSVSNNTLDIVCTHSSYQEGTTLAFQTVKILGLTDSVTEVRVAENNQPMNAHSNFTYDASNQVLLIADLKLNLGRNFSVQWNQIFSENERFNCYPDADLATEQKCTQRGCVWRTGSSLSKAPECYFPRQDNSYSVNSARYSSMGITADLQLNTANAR
Chain of Sucrase-isomaltase, intestinal (P14410 1008-1827 limits assumed): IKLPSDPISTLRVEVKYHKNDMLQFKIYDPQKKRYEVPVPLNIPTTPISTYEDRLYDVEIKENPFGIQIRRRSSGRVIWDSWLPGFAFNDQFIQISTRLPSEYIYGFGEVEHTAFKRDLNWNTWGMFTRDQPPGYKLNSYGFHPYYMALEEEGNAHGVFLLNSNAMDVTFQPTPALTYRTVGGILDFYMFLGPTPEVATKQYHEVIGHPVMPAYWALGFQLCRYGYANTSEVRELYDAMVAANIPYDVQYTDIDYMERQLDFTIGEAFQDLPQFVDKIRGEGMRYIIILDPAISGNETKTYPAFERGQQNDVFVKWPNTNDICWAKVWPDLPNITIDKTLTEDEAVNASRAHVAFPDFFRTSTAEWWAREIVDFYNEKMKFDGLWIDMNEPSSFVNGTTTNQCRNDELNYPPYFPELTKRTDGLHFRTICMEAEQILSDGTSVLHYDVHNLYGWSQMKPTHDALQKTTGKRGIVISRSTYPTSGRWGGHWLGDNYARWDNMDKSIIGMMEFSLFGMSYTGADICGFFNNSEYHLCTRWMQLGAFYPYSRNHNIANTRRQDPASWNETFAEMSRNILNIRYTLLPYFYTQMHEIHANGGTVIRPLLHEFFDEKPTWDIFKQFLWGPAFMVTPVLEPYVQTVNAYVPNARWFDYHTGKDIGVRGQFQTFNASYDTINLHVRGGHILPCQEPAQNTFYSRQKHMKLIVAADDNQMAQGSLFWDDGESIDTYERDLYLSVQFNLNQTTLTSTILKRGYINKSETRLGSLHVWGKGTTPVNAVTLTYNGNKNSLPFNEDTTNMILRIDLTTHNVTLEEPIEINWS

Rattus norvegicus = species on record: Rattus norvegicus; test: as §1
Saccharomyces cerevisiae = test: as §2

O=c1cc(-c2ccccc2)oc2cc(O)c(O)c(O)c12 [BAICALEIN]
IC50 [1]: 215 µM
IC50 [2]: 203 µM
IC50 [3]: 52 µM

COc1c(O)c(CN(c2ccccc2)c2ccccc2)c2oc(-c3ccccc3)cc(=O)c2c1O
Activity (Rattus norvegicus): inactive
Activity (Saccharomyces cerevisiae): inactive

COc1c(O)c(CN2CCOCC2)c2oc(-c3ccccc3)cc(=O)c2c1O
IC50 [1]: 76 µM
IC50 [2]: 150 µM

OC[C@H]1NC[C@H](O)[C@@H](O)[C@@H]1O [DUVOGLUSTAT]
IC50 [2]: 49.3 µM

O=c1cc(-c2ccccc2)oc2cc(O)cc(O)c12 [CHRYSIN]
IC50 [1]: 376 µM
IC50 [2]: 371 µM

COc1c(O)c(CN2CCN(C)CC2)c2oc(-c3ccccc3)cc(=O)c2c1O
IC50 [1]: 35.4 µM
IC50 [2]: 98.8 µM

COc1c(O)cc2oc(-c3ccccc3)cc(=O)c2c1O [OROXYLIN A]
IC50 [1]: 135 µM
IC50 [2]: 124 µM

COc1c(O)c(CN2CCCC2)c2oc(-c3ccccc3)cc(=O)c2c1O
Activity (Rattus norvegicus): inactive
Activity (Saccharomyces cerevisiae): inactive

COc1c(O)c(CNCc2ccccc2)c2oc(-c3ccccc3)cc(=O)c2c1O
Activity (Rattus norvegicus): inactive
Activity (Saccharomyces cerevisiae): inactive

CCCCNCc1c(O)c(OC)c(O)c2c(=O)cc(-c3ccccc3)oc12
Activity (Rattus norvegicus): inactive
Activity (Saccharomyces cerevisiae): inactive

COc1c(O)c(CN2CCCCC2)c2oc(-c3ccccc3)cc(=O)c2c1O
IC50 [1]: 50.7 µM
IC50 [2]: 167 µM

COc1c(O)c(CN(C)Cc2ccccc2)c2oc(-c3ccccc3)cc(=O)c2c1O
Activity (Rattus norvegicus): inactive
Activity (Saccharomyces cerevisiae): inactive

COc1c(O)c(CN(C)Cc2ccco2)c2oc(-c3ccccc3)cc(=O)c2c1O
Activity (Rattus norvegicus): inactive
Activity (Saccharomyces cerevisiae): inactive

COc1c(O)c(CN2CCN(C(=O)OC(C)(C)C)CC2)c2oc(-c3ccccc3)cc(=O)c2c1O
IC50 [1]: 75 µM
IC50 [2]: 84.4 µM

C[C@H]1O[C@H](O[C@H]2[C@H](O)[C@@H](O)[C@@H](O[C@H]3[C@H](O)[C@@H](O)C(O)O[C@@H]3CO)O[C@@H]2CO)[C@H](O)[C@@H](O)[C@@H]1N[C@H]1C=C(CO)[C@@H](O)[C@H](O)[C@H]1O (some centres undefined) [ACARBOSE]
IC50 [1]: 6.38 µM
